Reference: patent US9233184B2, “Adhesive preparation” (HISAMITSU PHARMACEUTICAL CO., INC., priority 2006, dated 2016)
Read-outs that look alike come from different tables or passages of the source.

Columns and labels:
clinical = conditions: human, in vivo; for Cmax: plasma Cmax
Experimental: (§1) Blood was collected over time. […] Methyl salicylate and 1-menthol are contained in large amounts in daily necessities. Therefore, the use of such daily necessities was avoided before and during the application.
(§2) The plasma concentrations of the methyl salicylate, its metabolite salicylic acid, and the 1-menthol were separately measured. The measurement was performed by liquid chromatography-mass spectrometry for the salicylic acid and by gas chromatography-mass spectrometry for the methyl salicylate and the 1-menthol. Each of the measurement methods was validated beforehand to confirm measurement reliability. Values obtained by subtracting an endogenous concentration (measurement value on 0 hour) before the application from an actual measurement value were used as plasma concentrations during the application. The Cmax and AUC0-24 were calculated according to the standard methods.
This measurement of the plasma concentrations was performed according to the guideline of FDA (U.S. Food and Drug Administration) (Guidance for Industry=Bioanalytical Method Validation).

[1] = cited from earlier work
[2] = human, in vivo
Experimental: as §1, §2
A mean was an average value from the seven individuals to be tested. This measurement of the plasma concentrations was performed according to the guideline of FDA (U.S. Food and Drug Administration) (Guidance for Industry=Bioanalytical Method Validation).

COC(=O)c1ccccc1O [Methyl salicylate]
AUC(0-t) (clinical; plasma AUC0-24, Maximum value): 139 ng·h/mL | AUC(0-t) (clinical; plasma AUC0-24, Mean ± S.D.): 30.1 ng·h/mL | AUC(0-t) (clinical; plasma AUC0-24, Minimum value): 3.7 ng·h/mL | Cmax (clinical; Maximum value): 109 ng/mL | Cmax (clinical; Mean ± S.D.): 21.1 ng/mL | Cmax (clinical; Minimum value): 2.5 ng/mL | plasma concentration of methyl salicylate ([1]; eight pieces of adhesive preparation with 74.88 mg/piece of methyl salicylate applied to a human): approximately 30 ng/mL | plasma concentration of methyl salicylate ([1]; two pieces of adhesive preparation with 74.88 mg/piece of methyl salicylate applied to a human): hardly rose | time within which maximum plasma concentration (Cmax) is achieved [2]: ≤ 6 h

O=C(O)c1ccccc1O [Salicylic acid]
AUC(0-t) (clinical; plasma AUC0-24, Maximum value): 24700 ng·h/mL | AUC(0-t) (clinical; plasma AUC0-24, Mean ± S.D.): 8850 ng·h/mL | AUC(0-t) (clinical; plasma AUC0-24, Minimum value): 3460 ng·h/mL | Cmax (clinical; Maximum value): 4100 ng/mL | Cmax (clinical; Mean ± S.D.): 1290 ng/mL | Cmax (clinical; Minimum value): 531 ng/mL | time within which maximum plasma concentration (Cmax) is achieved [2]: ≤ 12 h

CC1CCC(C(C)C)C(O)C1 (stereo not drawn) [Example 1-menthol, 1-menthol]
AUC(0-t) (clinical; plasma AUC0-24, Mean ± S.D.): 80.6 ng·h/mL | time within which maximum plasma concentration (Cmax) is achieved [2]: ≤ 8 h
